This is an account of results in US11389465B2, “Phosphorylated hexaacyl disaccharides (PHADs) for treating or preventing infections” (VANDERBILT UNIVERSITY, priority 2017, dated 2022).

Data set [1] has as its system Pseudomonas aeruginosa. Description: Duration of MPLA activity, intraperitoneal P. aeruginosa challenge (FIG. 4). In kind it is in vivo, mice. As to the method: FIG. 4. Duration of MPLA activity. Mice were treated with MPLA (20 μg IP) for 2 consecutive days and challenged with P. aeruginosa at the designated times after the last MPLA treatment. *<0.05 compared to vehicle control.
It is important to know how long the effect of PHADs lasts to guide dosing frequency. Studies were performed with MPLA that show a duration of action of up to 10 days. Mice were treated with MPLA on 2 consecutive days (20 μg, IP) followed by intraperitoneal challenge with Pseudomonas aeruginosa (1×10^8) at 1, 7, 10 or 15 days after the last MPLA treatment (FIG. 4).

In data set [2] the test system is Pseudomonas aeruginosa. In words: Pseudomonas burn wound infection in mice, MPLA given before inoculation (FIG. 1). Type of data set: in vivo. Conditions: MPLA 20 μg. As for the experimental part: FIG. 1. MPLA treatment improves host resistance to Pseudomonas burn wound infection. Mice exposed to a 20% full thickness burn wound were treated with MPLA on days 3 and 4 post-burn and were inoculated with 1×10^8 Pseudomonas aeruginosa in the caudad (area 3) portion of the burn wound. A. Wounds were excised 48 hours after inoculation, sectioned into 3 segments (areas 1-3) and homogenized. Bacterial colony forming units (cfu) were determined by culture on agar plates. B. At 4-6 days after infection, wound and lungs were harvested, homogenized and cultured to measure Pseudomonas cfu. C. Survival was determined after Pseudomonas infection. *p<0.05 compared to vehicle.
Consequently, MPLA is currently employed by Glaxo Smith Kline as a component of the FDA-approved ASO4 vaccine adjuvant system (27, 28). […] It was also shown that total wound bacteria and dissemination of Pseudomonas from the burn wound to the lungs was diminished in mice treated with MPLA (FIG. 1B).

The conditions of data set [3]: in vivo; cited from earlier work.
For a further data set, the system named is Staphylococcus aureus. In words: Systemic S. aureus infection after MPLA or PHADs (FIG. 8). In kind it is in vivo, mice. Conditions: 20 μg/mouse on day 0 and day 1; S. aureus 1×10^8 intravenously on day 2. As to the method: FIG. 8. PHADs induce bacterial clearance and promote survival post systemic S. aureus infection. […] (B) In one set of experiments, mice were euthanized at 72 hours post-infection and lung, spleen, and kidney tissues were harvested to measure bacterial burden. (C) In a separate set of experiments, mice underwent the same treatment with MPLA or PHADs, followed by infection with S. aureus. However, this group is monitored for 14 days to assess for survival. *p<0.05 compared to vehicle. N=13-16/group in the 3 day clearance experiments, performed in quadruplicate, and n=9-10/group, performed in triplicate.
In addition, mice were analyzed for survival after intravenous Staphylococcus aureus infection with treatment of MPLA or PHADs. At Day 0, mice were treated with vehicle, MPLA or PHADs (20 μg/mouse). At Day 1, mice were treated with vehicle, MPLA or PHADs (20 μg/mouse). At Day 2, mice were infected with Staphylococcus aureus (1×10^8 intravenously) and followed for survival.

A short description of data set [4]: Physiological response of burned sheep to MPLA infusion (FIG. 7). Type of data set: in vivo. As for the experimental part:
FIG. 7. MPLA infusion causes transient physiologic changes in burned sheep. Sheep received 20% total body surface area burn followed 24 hours later by vehicle or MPLA ([…]) infusion. Core body temperature, hemodynamics and pulmonary mechanics were measured for 2 hours after initiation of MPLA or vehicle infusions. […] A transient increase in heart rate (HR) and decrease in mean arterial blood pressure (MAP) were also observed in MPLA-treated sheep.
Sheep were instrumented and received a 20% cutaneous burn. At 24 hours after the burn procedure, MPLA (5 ug/kg) was infused in 10 ml of endotoxin-free lactated Ringer's solution over 10 minutes. The sheep developed a transient 1° C. increase in core temperature at 1 hour after the start of infusion (FIG. 7).

The test system of another data set is C. albicans. Description: Systemic (intravenous) C. albicans infection in MPLA-primed mice (FIG. 2). In kind it is in vivo. As to conditions: MPLA 20 μg; intravenous C. albicans 1×10^8 CFU. As to the method:
FIG. 2. MPLA induces resistance to S. aureus and C. albicans infection. A) WT BALB/c mice were injected with intravenous MPLA (20 μg/mouse) or vehicle one and two days prior to intravenous inoculation with intravenous 10^8 cfu S. aureus or 10^8 cfu C. albicans. B) Kaplan Meier survival curve of vehicle- and MPLA-primed mice. (n=12 mice/group) after S. aureus inoculation. C) Core (rectal) body temperature assessed daily after S. aureus inoculation. D) S. aureus cfu per gram of tissue recoverable from whole spleen, lung, and kidney in vehicle and MPLA-primed mice at 3 days after S. aureus inoculation. E) Concentration of serum IL-6 2 hours after S. aureus inoculation or vehicle. F) Concentration of serum BUN 3 days after S. aureus inoculation or vehicle. G) Kaplan Meier survival curve of vehicle- and MPLA-primed mice. (n=12 mice/group) after intravenous 10^8 cfu C. albicans inoculation. H) Core (rectal) body temperature after C. albicans inoculation. Data shown as mean+/−SEM. For Kaplan-Meier plots *, p<0.05 via log-rank Mantel-Cox test. Otherwise, *, p<0.05 as determined by ANOVA with Tukey's post-hoc multiple comparison test.
MPLA is also effective in improving survival in models of systemic S. aureus and C. albicans infection. Mice treated with MPLA (20 μg) after a 20% cutaneous burn received intravenous challenge with S. aureus or C. albicans (1×10^8 CFU) on day 5 post-burn (FIG. 2).

For data set [5] the following is noted: infusion; not at lower doses; cited from earlier work.
A further data set has as its system P. aeruginosa. Description: Pseudomonas pneumonia in burned sheep treated with MPLA (FIG. 14). Type of data set: in vivo. As to the method:
FIG. 14. MPLA treatment improves oxygenation and pulmonary mechanics and attenuates lactate production in sheep with Pseudomonas pneumonia. Studies were undertaken to assess oxygenation, pulmonary mechanics and hemodynamics in burned sheep treated with vehicle or MPLA prior to intrapulmonary challenge with P. aeruginosa. Sheep received a 20% total body surface area thermal burn followed 24 hours later by MPLA infusion. Intrapulmonary P. aeruginosa infection was induced at 24 hours after MPLA infusion. […] Hemodynamics and pulmonary function were measured for 24 hours after Pseudomonas infection.

Where [6] appears, read: MPLA 5 ug/kg, 24 hours after 20% burn.
Where [7] appears, read: MPLA 2.5 micrograms/kg (FIG. 7 legend).

Monophosphoryl Lipid A [MPLA]: in the data set on Pseudomonas aeruginosa [1] (MPLA 20 μg IP on 2 consecutive days), the duration of action entry is “up to 10 days”. Also, the bacterial burden result in the data set with Pseudomonas aeruginosa [1] (challenge at 1, 7 and 10 days after last MPLA treatment, compared to vehicle) is “significantly lower bacterial burden”. The attenuation of hypothermia result with Pseudomonas aeruginosa [1] (challenge up to 15 days after last MPLA treatment) is “persisted until day 15”. For the same substance, the “total wound bacteria and dissemination of Pseudomonas from the burn wound to the lungs” value in the data set on Pseudomonas aeruginosa [2] (20% burn, 4-6 days after infection) is “diminished”. The survival entry with Pseudomonas aeruginosa [2] (20% burn, Pseudomonas wound infection) is given as “One hundred”. Further, the “spread of bacteria within the burn wound (areas 1 and 2)” value in the data set on Pseudomonas aeruginosa [2] (20% cutaneous burn, wound inoculated in area 3) is reported as “decreased spread of bacteria within the burn wound”. The “dose relative to LPS that can be administered to humans before adverse side effects occur” value in data set [3] is listed as 1000-10,000 times. The survival entry in the data set with Staphylococcus aureus was “improved survival”. Also, in data set [4] (setting [6]), the “cardiac index, mean arterial pressure, central venous pressure, stroke volume, systemic vascular resistance, peak and pause airway pressures and PaO2/FiO2 ratio” value is “not significantly changed”; the “heart rate and pulmonary artery pressure” value was “not significantly altered”. The “increase in core temperature” value in data set [4] (MPLA 5 ug/kg, 24 hours after 20% burn, transient, at 1 hour after start of infusion) amounted to 1 °C. Besides, in data set [4] (setting [7]), the “cardiac index (CI), central venous pressure (CVP) and systemic vascular resistance (SVRI)” value is “minimally impacted”; the “mean arterial blood pressure (MAP)” value was “significantly decreased at 45 and 60 minutes”; the “time of peak core body temperature after initiation of infusion” value stood at 75 min. For the same substance, in data set [4] (MPLA 2.5 micrograms/kg (FIG. 7 legend), from 45 minutes, still elevated at 2 hours), the core body temperature result is given as “increased core body temperature”. In data set [4] (MPLA 2.5 micrograms/kg (FIG. 7 legend), returned to baseline at 90 minutes), the “heart rate (HR)” value is “significantly increased at 30-75 minutes”. The substance also gave a safe dose in data set [4] (burned sheep, infusion over 10 minutes) of 5 µg/kg. The substance also returned a survival with C. albicans of 40%. For the same substance, the “MPLA dose at which humans show subjective changes consistent with systemic inflammation” value in data set [5] was 10 µg/kg. Further, the “oxygenation (PaO2/FiO2 ratio, oxygenation index, shunt fraction)” value in the data set with P. aeruginosa (24 hours after Pseudomonas infection, compared to controls) is reported as “significantly better”. For the same substance, in the data set on P. aeruginosa (72 hour study period), the survival entry was “All sheep survived”. Moreover, the PaCO2 result with P. aeruginosa (MPLA vs vehicle) was “not significantly different between groups”. The “decrease in plasma protein caused by pulmonary infection” value in the data set with P. aeruginosa (MPLA vs vehicle, difference not significant) was “trended towards attenuation”. The plasma lactate concentration result in the data set with P. aeruginosa (compared to controls) is given as “significantly lower”.
